Results from patent US10479795B2 (Incyte Corporation, priority 2016, dated 2019).
Counter-ions that a name gives are not always drawn.

Biological target: PI3Kγ (p110γ) Recombinant Human Protein (Homo sapiens (Human), UniProt P48736)
Assay: PI3K-γ Scintillation Proximity Assay
Type: biochemical
Settings: read-out: PI3Kγ IC50
Experimental: [γ-^33P]ATP (10 mCi/mL) and Wheat Germ Agglutinin (WGA) YSi SPA Scintillation Beads was purchased from Perkin-Elmer (Waltham, Mass.). […] PI3Kγ (p110γ) Recombinant Human Protein was purchased from Life technology (Grand Island, N.Y.). ATP, MgCl2, DTT, EDTA, MOPS and CHAPS were purchased from Sigma-Aldrich (St. Louis, Mo.).
The kinase reaction was conducted in polystyrene 384-well Greiner Bio-one white plate from Thermo Fisher Scientific in a final volume of 25 μL. Inhibitors were first diluted serially in DMSO and added to the plate wells before the addition of other reaction components. The final concentration of DMSO in the assay was 2%. The PI3Kγ assay was carried out at room temperature in 20 mM MOPS, pH 6.7, 10 mM MgCl2, 5 mM DTT and CHAPS 0.03%. Reactions were initiated by the addition of ATP, the final reaction mixture consisted of 20 μM PIP2, 2 μM ATP, 0.5 μCi [γ-^33P] […] The final concentration of SPA beads is 1.0 mg/mL. After the plate sealing, plates were shaken overnight at room temperature and centrifuged at 1500 rpm for 10 min, the radioactivity of the product was determined by scintillation counting on Topcount (Perkin-Elmer). IC50 determination was performed by fitting the curve of percent of the solvent control activity versus the log of the inhibitor concentration using the GraphPad Prism 6.0 software.

Sequence of PI3Kγ (p110γ) Recombinant Human Protein (P48736 whole entry): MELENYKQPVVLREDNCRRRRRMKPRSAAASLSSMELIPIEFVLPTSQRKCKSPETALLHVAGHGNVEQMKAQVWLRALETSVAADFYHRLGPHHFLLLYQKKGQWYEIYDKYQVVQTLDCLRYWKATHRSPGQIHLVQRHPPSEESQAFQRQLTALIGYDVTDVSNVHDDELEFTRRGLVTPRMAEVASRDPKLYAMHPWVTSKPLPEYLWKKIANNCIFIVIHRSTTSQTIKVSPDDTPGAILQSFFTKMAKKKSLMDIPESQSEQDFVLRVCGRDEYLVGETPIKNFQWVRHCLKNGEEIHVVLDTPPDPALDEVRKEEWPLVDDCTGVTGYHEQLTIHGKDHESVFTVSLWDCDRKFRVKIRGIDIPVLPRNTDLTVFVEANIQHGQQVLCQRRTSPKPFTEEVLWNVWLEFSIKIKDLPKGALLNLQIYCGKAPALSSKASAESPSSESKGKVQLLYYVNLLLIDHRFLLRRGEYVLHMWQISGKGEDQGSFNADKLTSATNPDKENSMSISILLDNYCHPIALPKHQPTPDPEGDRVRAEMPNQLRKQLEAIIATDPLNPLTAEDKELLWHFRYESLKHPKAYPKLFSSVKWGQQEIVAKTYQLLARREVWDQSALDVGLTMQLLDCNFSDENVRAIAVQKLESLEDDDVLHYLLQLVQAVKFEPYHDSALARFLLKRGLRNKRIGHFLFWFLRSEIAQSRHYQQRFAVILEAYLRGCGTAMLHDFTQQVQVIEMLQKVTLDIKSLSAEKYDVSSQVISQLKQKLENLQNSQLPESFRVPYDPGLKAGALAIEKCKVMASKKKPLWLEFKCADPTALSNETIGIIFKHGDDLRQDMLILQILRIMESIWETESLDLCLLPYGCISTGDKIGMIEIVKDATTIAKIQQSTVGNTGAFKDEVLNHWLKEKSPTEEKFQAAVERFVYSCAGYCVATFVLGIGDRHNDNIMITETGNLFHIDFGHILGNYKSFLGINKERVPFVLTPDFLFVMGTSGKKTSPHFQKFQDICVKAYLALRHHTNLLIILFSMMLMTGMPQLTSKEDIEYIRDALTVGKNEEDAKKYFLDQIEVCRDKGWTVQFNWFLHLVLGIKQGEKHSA

Row | IC50 | Structure (SMILES)
1 | < 100 nM | Cc1ccc(S(=O)(=O)N2CCCC(C(F)(F)F)C2)cc1-c1cnc2c(N)ncnn12 (stereo not drawn) [Example 218, 7-(2-methyl-5-((3-(trifluoromethyl)piperidin-1-yl)sulfonyl)phenyl)imidazo[2,1-f][1,2,4]triazin-4-amine]
2 | 100 to 500 nM | Cc1ccc(S(=O)(=O)NC(c2ccccn2)C(F)(F)F)cc1-c1cnc2c(N)ncnn12 (stereo not drawn) [Example 234, 3-(4-aminoimidazo[2,1-f][1,2,4]triazin-7-yl)-4-methyl-N-(2,2,2-trifluoro-1-(pyridin-2-yl)ethyl)benzenesulfonamide]
3 | < 100 nM | Cc1ccc(S(=O)(=O)NC2(C)CNC2)cc1-c1cnc2c(N)nc(C(F)(F)F)nn12 [Example 531, 3-(4-Amino-2-(trifluoromethyl)imidazo[2,1-f][1,2,4]triazin-7-yl)-4-methyl-N-(3-methylazetidin-3-yl)benzenesulfonamide trifluoroacetate]
4 | < 100 nM | Cc1ccc(S(=O)(=O)N2CCN(c3nccnc3C#N)CC2)cc1-c1cnc2c(N)ncnn12 [Example 231, 3-(4-((3-(4-aminoimidazo[2,1-f][1,2,4]triazin-7-yl)-4-methylphenyl)sulfonyl)piperazin-1-yl)pyrazine-2-carbonitrile]
5 | < 100 nM | Cc1ccc(S(=O)(=O)N2CCN(c3ncccn3)CC2)cc1-c1cnc2c(N)ncnn12 [Example 230, 7-(2-methyl-5-((4-(pyrimidin-2-yl)piperazin-1-yl)sulfonyl)phenyl)imidazo[2,1-f][1,2,4]triazin-4-amine]
6 | < 100 nM | Cc1ccc(S(C)(=O)=O)cc1-c1cnc2c(N)nc(C3CCOCC3)cn12 [Example 536, 3-(2-Methyl-5-(methylsulfonyl)phenyl)-6-(tetrahydro-2H-pyran-4-yl)imidazo[1,2-a]pyrazin-8-amine trifluoroacetate]
7 | < 100 nM | Cc1ccc(S(=O)(=O)N2CCCn3nccc32)cc1-c1cnc2c(N)ncnn12 [Example 215, 7-(5-((6,7-dihydropyrazolo[1,5-a]pyrimidin-4(5H)-yl)sulfonyl)-2-methylphenyl)imidazo[2,1-f][1,2,4]triazin-4-amine]
8 | < 100 nM | CC(=O)NC1CCN(S(=O)(=O)c2ccc(C)c(-c3cnc4c(N)ncnn34)c2)CC1 [Example 226, N-(1-((3-(4-aminoimidazo[2,1-f][1,2,4]triazin-7-yl)-4-methylphenyl)sulfonyl)piperidin-4-yl)acetamide]
9 | 500 to 2000 nM | Cc1ccc(S(=O)(=O)NC(C)(C)CN2CCCC2)cc1-c1cnc2c(N)ncnn12 [Example 239, 3-(4-aminoimidazo[2,1-f][1,2,4]triazin-7-yl)-4-methyl-N-(2-methyl-1-(pyrrolidin-1-yl)propan-2-yl)benzenesulfonamide]
10 | < 100 nM | Cc1ccc(S(=O)(=O)NCc2cnccn2)cc1-c1cnc2c(N)nc(C(F)(F)F)nn12 [Example 358, 3-(4-amino-2-(trifluoromethyl)imidazo[2,1-f][1,2,4]triazin-7-yl)-4-methyl-N-(pyrazin-2-ylmethyl)benzenesulfonamide]
11 | 100 to 500 nM | COC(=O)N1CCC(c2cn3c(-c4cc(S(C)(=O)=O)ccc4C)cnc3c(N)n2)C1 (stereo not drawn) [Example 538, Methyl 3-(8-amino-3-(2-methyl-5-(methylsulfonyl)phenyl)imidazo[1,2-a]pyrazin-6-yl)pyrrolidine-1-carboxylate trifluoroacetate]
12 | 100 to 500 nM | Cc1ccc(S(=O)(=O)NC(CN)C2CC2)cc1-c1cnc2c(N)ncnn12 (stereo not drawn) [Example 238, N-(2-amino-1-cyclopropylethyl)-3-(4-aminoimidazo[2,1-f][1,2,4]triazin-7-yl)-4-methylbenzenesulfonamide]
13 | < 100 nM | Cc1ccc(S(=O)(=O)NCc2cccc(C(F)(F)F)n2)cc1-c1cnc2c(N)ncnn12 [Example 235, 3-(4-aminoimidazo[2,1-f][1,2,4]triazin-7-yl)-4-methyl-N-((6-(trifluoromethyl)pyridin-2-yl)methyl)benzenesulfonamide]
14 | < 100 nM | Cc1ccc(S(=O)(=O)NC23CCCC(C#N)(C2)C3)cc1-c1cnc2c(N)ncnn12 [Example 520, 3-(4-Aminoimidazo[2,1-f][1,2,4]triazin-7-yl)-N-(5-cyanobicyclo[3.1.1]heptan-1-yl)-4-methylbenzenesulfonamide trifluoroacetate]
15 | < 100 nM | Cc1ccc(S(=O)(=O)NC23C4C5C2C2C3C4C52C#N)cc1-c1cnc2c(N)ncnn12 (stereo not drawn) [Example 534, 3-(4-Aminoimidazo[2,1-f][1,2,4]triazin-7-yl)-N-(4-cyanocuban-1-yl)-4-methylbenzenesulfonamide trifluoroacetate]
16 | < 100 nM | CC(=O)N1CCC(c2cn3c(-c4cc(S(C)(=O)=O)ccc4C)cnc3c(N)n2)CC1 [Example 537, 1-(4-(8-Amino-3-(2-methyl-5-(methylsulfonyl)phenyl)imidazo[1,2-a]pyrazin-6-yl)piperidin-1-yl)ethan-1-one trifluoroacetate]
17 | < 100 nM | Cc1ccc(S(=O)(=O)NCc2ccnn2C)cc1-c1cnc2c(N)nc(C(F)(F)F)nn12 [Example 357, 3-(4-amino-2-(trifluoromethyl)imidazo[2,1-f][1,2,4]triazin-7-yl)-4-methyl-N-((1-methyl-1H-pyrazol-5-yl)methyl)benzenesulfonamide]
18 | < 100 nM | Cc1ccc(S(=O)(=O)N2C3CC4CC2CC(C3)O4)cc1-c1cnc2c(N)ncnn12 [Example 221, 7-(5-((-2-oxa-6-azaadamantan-6-yl)sulfonyl)-2-methylphenyl)imidazo[2,1-f][1,2,4]triazin-4-amine]
19 | 100 to 500 nM | Cc1ccc(S(=O)(=O)N2CC(C3CCOC3)C2)cc1-c1cnc2c(N)ncnn12 (stereo not drawn) [Example 219, 7-(2-methyl-5-((3-(tetrahydrofuran-3-yl)azetidin-1-yl)sulfonyl)phenyl)imidazo[2,1-f][1,2,4]triazin-4-amine]
20 | < 100 nM | COc1ccc(NS(=O)(=O)c2ccc(C)c(-c3cnc4c(N)ncnn34)c2)c(C)n1 [Example 246, 3-(4-aminoimidazo[2,1-f][1,2,4]triazin-7-yl)-N-(6-methoxy-2-methylpyridin-3-yl)-4-methylbenzenesulfonamide]
21 | < 100 nM | Cc1ccc(S(=O)(=O)N2CC3(CCOC3)C2)cc1-c1cnc2c(N)ncnn12 [Example 220, 7-(5-((6-oxa-2-azaspiro[3.4]octan-2-yl)sulfonyl)-2-methylphenyl)imidazo[2,1-f][1,2,4]triazin-4-amine]
22 | < 100 nM | Cc1ccc(S(=O)(=O)Nc2ccc(C(=O)N3CC(O)C3)nc2)cc1-c1cnc2c(N)ncnn12 [Example 242, 3-(4-aminoimidazo[2,1-f][1,2,4]triazin-7-yl)-N-(6-(3-hydroxyazetidine-1-carbonyl)pyridin-3-yl)-4-methylbenzenesulfonamide]
23 | < 100 nM | Cc1ccc(S(=O)(=O)Nc2cc3cn[nH]c3cn2)cc1-c1cnc2c(N)ncnn12 [Example 243, 3-(4-aminoimidazo[2,1-f][1,2,4]triazin-7-yl)-4-methyl-N-(1H-pyrazolo[3,4-c]pyridin-5-yl)benzenesulfonamide]
24 | < 100 nM | Cc1ccc(S(=O)(=O)N2CCn3cnnc3C2C)cc1-c1cnc2c(N)ncnn12 (stereo not drawn) [Example 222, 7-(2-methyl-5-((8-methyl-5,6-dihydro-[1,2,4]triazolo[4,3-a]pyrazin-7(8H)-yl)sulfonyl)phenyl)imidazo[2,1-f][1,2,4]triazin-4-amine]
25 | < 100 nM | Cc1ccc(S(=O)(=O)N2CCc3nn(C)cc3C2)cc1-c1cnc2c(N)ncnn12 [Example 225, 7-(2-methyl-5-((2-methyl-2,4,6,7-tetrahydro-5H-pyrazolo[4,3-c]pyridin-5-yl)sulfonyl)phenyl)imidazo[2,1-f][1,2,4]triazin-4-amine]
26 | < 100 nM | Cc1ccc(S(=O)(=O)NC23CCCC(C(C)O)(C2)C3)cc1-c1cnc2c(N)ncnn12 (stereo not drawn) [Example 521, 3-(4-aminoimidazo[2,1-f][1,2,4]triazin-7-yl)-N-(5-(1-hydroxyethyl)bicyclo[3.1. 1]heptan-1-yl)-4-methylbenzenesulfonamide trifluoroacetate]
27 | < 100 nM | CNC(=O)C1CCN(S(=O)(=O)c2ccc(C)c(-c3cnc4c(N)ncnn34)c2)CC1 [Example 227, 1-((3-(4-aminoimidazo[2,1-f][1,2,4]triazin-7-yl)-4-methylphenyl)sulfonyl)-N-methylpiperidine-4-carboxamide]
28 | < 100 nM | Cc1ccc(S(=O)(=O)NCc2cnccn2)cc1-c1cnc2c(N)ncnn12 [Example 233, 3-(4-aminoimidazo[2,1-f][1,2,4]triazin-7-yl)-4-methyl-N-(pyrazin-2-ylmethyl)benzenesulfonamide]

Row | Structure (SMILES) | IC50
29 | Cc1ccc(S(=O)(=O)NC23CC(CN(C)C2)C3)cc1-c1cnc2c(N)ncnn12 [Example 523, 3-(4-Aminoimidazo[2,1-f][1,2,4]triazin-7-yl)-4-methyl-N-(3-methyl-3-azabicyclo[3.1.1]heptan-1-yl)benzenesulfonamide trifluoroacetate] | < 100 nM
30 | Cc1ccc(S(=O)(=O)NC23CC(CN(C4CCC4)C2)C3)cc1-c1cnc2c(N)ncnn12 [Example 525, 3-(4-Aminoimidazo[2,1-f][1,2,4]triazin-7-yl)-N-(3-cyclobutyl-3-azabicyclo[3.1.1]heptan-1-yl)-4-methylbenzenesulfonamide trifluoroacetate] | 100 to 500 nM
